Source: patent US10457654B2 (GENENTECH, INC., priority 2017, dated 2019)
Counter-ions that a name gives are not always drawn.

Assays:
hNav1.7 [1] = target: T1, hNav1.7 (Homo sapiens (Human), UniProt Q15858); test: Tritiated compound binding to membranes from cells expressing hNav1.7 and the β1 subunit, modified protocol (LBA, Ex. 243B); conditions: 300 pM [3H]compound, room temperature, read-out: Nav1.7 LBA (Ex. 243B) IC50
Target sequence in this assay (Q15858 whole entry, looked up): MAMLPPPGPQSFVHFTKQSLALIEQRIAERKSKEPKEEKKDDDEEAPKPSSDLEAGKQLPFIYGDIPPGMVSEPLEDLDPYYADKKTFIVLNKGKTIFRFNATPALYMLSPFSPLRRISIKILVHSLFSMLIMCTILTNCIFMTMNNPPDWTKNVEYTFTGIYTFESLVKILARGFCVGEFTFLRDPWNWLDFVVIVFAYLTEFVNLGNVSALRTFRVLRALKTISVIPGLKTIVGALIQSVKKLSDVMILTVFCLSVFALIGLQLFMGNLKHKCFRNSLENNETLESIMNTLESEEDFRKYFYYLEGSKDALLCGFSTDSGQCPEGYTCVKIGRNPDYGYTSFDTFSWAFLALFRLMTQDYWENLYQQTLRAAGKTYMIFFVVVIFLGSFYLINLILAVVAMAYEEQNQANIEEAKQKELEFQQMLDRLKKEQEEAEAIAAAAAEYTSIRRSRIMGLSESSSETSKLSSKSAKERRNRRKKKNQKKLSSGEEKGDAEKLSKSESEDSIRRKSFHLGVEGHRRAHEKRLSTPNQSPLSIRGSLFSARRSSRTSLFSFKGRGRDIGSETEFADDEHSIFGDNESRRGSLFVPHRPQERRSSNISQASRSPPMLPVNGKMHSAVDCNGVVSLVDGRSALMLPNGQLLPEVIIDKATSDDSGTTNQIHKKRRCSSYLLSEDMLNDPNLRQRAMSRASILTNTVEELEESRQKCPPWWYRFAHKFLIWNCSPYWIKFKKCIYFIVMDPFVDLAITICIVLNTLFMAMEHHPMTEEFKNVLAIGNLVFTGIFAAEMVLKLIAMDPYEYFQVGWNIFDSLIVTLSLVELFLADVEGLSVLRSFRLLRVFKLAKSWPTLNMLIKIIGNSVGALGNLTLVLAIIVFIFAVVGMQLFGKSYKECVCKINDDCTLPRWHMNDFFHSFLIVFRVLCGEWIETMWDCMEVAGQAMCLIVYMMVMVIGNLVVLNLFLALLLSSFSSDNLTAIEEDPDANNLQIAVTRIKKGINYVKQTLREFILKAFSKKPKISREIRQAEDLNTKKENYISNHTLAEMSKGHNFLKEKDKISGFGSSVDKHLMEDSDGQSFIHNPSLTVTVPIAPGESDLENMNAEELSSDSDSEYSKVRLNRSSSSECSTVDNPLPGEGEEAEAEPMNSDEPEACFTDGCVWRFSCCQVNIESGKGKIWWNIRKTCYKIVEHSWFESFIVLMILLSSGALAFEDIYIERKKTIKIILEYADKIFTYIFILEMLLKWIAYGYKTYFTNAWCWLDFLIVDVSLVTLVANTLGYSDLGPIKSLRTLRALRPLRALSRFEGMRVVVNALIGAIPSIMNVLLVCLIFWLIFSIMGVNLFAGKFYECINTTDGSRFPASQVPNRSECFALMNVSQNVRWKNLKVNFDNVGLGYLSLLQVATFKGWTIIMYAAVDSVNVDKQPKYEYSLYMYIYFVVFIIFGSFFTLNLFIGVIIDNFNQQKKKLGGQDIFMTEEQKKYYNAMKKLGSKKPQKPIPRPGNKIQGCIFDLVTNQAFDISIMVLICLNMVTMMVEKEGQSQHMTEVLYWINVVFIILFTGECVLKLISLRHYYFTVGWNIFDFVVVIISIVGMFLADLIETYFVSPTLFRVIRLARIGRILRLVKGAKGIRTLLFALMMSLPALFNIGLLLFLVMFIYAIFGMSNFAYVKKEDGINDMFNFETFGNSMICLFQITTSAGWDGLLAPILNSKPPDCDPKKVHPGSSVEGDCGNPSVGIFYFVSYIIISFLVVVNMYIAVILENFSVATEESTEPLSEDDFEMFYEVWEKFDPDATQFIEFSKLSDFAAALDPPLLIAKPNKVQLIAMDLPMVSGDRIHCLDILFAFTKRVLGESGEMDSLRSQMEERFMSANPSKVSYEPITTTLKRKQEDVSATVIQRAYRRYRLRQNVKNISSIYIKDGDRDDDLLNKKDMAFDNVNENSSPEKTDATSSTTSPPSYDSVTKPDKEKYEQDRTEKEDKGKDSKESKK
Target sequence in this assay (Q07699 whole entry partner, looked up): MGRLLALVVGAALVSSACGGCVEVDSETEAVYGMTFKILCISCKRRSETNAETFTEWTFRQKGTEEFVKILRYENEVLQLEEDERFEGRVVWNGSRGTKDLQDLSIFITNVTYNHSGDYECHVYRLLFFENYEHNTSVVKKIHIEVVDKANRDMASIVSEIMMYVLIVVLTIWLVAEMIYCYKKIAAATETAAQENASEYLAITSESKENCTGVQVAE

hNav1.7 [2] = target: T1, hNav1.7; test: Patch voltage clamp electrophysiology assay (EP), Syncropatch 384PE, CHO cells expressing Nav1.7; type: cell-based; conditions: holding potential -50 mV; […] compound incubation; read-out: EP_SP hNav1.7 (Ex. 243B) IC50
Protocol: Electrophysiological Assay (EP) (In Vitro Assay)
The following voltage clamp electrophysiology studies were performed on representative compounds using cells heterologously expressing Nav1.7 or Nav1.5 channels. cDNAs for Nav1.7 (NM_002977) and Nav1.5 (AC137587) were stably expressed in Chinese Hamstr Ovary (CHO) cells and CHL (Chinese Hamster Lung) cells respectively. […] Internal solution consists of (in mM): 110 […], 10 […], 20 EGTA, and 10 Hepes (pH adjusted to 7.2); and external solution contains (in mM): 60 NMDG, 80 NaCl, 4 KCl, 1 MgCl2, 2 CaCl2, 2 D-Glucose monohydrate, 10 Hepes (pH adjusted to 7.4 with NaOH).
The chip is moved into the measuring head and the instrument primes the chip with external and internal solutions. […] cells are added to the chip from a cell hotel, and a negative pressure of −50 mBar is applied to form a seal. Following treatment with seal enhancer solution and wash-off with external solution, negative pressure of −250 mbar is applied for 1 second to achieve the whole-cell configuration, followed by three washing steps in external solution. 20 μl of compounds is added to 40 μl in each well (1:3 dilution of compounds), and after mixing, 20 μl is removed so the volume is retained at 40 μl.
For voltage protocol, an holding potential of −50 mV is applied during the whole experiment. A depolarizing step is applied to −10 mV for 10 ms, followed by a hyperpolarization step to −150 mV for 20 ms to allow channel recovery from inactivation. A second depolarizing step is applied from −150 mV to −10 mV for 10 ms, where currents were measured to derive blocking effects of compounds. Inhibition is determined based on 7.5 min of compound incubation.
Target sequence in this assay (Q15858 other isoform, or with tags, fused parts or gaps): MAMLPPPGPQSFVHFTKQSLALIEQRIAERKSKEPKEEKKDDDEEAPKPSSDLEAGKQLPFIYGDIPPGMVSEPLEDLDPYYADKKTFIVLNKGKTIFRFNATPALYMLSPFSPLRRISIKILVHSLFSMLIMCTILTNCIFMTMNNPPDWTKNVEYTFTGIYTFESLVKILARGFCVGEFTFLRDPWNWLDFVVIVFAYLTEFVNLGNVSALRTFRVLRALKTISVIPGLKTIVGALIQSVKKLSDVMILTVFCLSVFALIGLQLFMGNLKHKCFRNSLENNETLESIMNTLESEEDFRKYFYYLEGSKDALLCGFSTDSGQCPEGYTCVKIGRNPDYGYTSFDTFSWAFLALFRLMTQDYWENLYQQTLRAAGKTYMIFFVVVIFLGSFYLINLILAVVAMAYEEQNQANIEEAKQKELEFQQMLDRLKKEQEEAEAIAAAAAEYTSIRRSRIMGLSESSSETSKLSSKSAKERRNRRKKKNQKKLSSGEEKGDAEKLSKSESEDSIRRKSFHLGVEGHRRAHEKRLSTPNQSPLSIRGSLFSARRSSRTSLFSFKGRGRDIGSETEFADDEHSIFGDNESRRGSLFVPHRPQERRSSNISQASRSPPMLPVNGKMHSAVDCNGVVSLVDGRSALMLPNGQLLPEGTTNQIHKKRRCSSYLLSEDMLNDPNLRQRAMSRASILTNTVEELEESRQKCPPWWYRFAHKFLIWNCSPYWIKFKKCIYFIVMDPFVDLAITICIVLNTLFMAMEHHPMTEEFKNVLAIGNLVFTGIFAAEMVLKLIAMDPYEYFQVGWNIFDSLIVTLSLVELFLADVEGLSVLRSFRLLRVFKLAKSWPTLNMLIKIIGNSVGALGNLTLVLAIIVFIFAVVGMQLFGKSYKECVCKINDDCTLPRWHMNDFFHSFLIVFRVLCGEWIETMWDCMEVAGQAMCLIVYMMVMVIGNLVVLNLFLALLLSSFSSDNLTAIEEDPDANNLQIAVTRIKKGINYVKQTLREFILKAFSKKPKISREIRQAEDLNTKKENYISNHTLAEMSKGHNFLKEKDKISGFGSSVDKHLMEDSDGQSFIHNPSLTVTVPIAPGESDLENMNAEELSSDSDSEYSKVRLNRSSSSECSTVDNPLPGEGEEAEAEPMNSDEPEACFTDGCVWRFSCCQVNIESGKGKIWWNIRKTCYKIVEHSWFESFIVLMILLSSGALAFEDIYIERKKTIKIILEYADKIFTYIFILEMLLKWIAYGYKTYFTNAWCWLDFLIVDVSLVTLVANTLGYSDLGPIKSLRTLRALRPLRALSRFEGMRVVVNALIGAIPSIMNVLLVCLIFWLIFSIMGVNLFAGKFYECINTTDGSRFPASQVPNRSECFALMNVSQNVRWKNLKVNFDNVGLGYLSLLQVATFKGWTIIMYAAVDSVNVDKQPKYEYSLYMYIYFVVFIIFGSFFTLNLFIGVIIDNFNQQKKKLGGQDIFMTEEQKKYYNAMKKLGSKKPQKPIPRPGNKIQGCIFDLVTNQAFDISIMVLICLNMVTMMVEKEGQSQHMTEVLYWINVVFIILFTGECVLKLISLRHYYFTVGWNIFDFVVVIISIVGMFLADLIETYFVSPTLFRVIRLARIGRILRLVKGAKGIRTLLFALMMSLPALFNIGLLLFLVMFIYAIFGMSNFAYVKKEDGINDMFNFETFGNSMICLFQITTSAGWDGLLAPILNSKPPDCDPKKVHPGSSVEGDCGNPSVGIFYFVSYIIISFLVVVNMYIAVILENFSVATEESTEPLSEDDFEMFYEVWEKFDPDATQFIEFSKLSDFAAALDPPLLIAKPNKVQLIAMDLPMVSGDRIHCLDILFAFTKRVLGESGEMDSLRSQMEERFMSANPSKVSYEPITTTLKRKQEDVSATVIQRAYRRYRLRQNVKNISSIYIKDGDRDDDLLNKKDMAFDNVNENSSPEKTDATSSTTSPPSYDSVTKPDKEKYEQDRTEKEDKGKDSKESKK

Molecule | IC50 (hNav1.7 [1]) [nM] | IC50 (hNav1.7 [2]) [nM]
5-Chloro-4-(((1S,2S)-2-(cyclobutyl(methyl)amino)cyclohexyl)amino)-2-fluoro-N-(thiazol-2-yl)benzenesulfonamide formate [Example 115] | 18 | 3.29
CN(CCC(C)(C)O)[C@H]1CCCC[C@@H]1Nc1cc(F)c(S(=O)(=O)Nc2cccc(F)n2)cc1Cl [Example 124, 5-chloro-2-fluoro-N-(6-fluoropyridin-2-yl)-4-(((1S,2S)-2-((3-hydroxy-3-methylbutyl)(methyl)amino)cyclohexyl)amino)benzenesulfonamide] | 1230 | 107
O=S(=O)(Nc1ccncn1)c1cc(Cl)c(N[C@H]2CC[C@H](C(F)(F)F)C[C@@H]2N2CCCCC2)cc1F [Example 206, 5-chloro-2-fluoro-4-(((1S,2S,4S)-2-(piperidin-1-yl)-4-(trifluoromethyl)cyclohexyl)amino)-N-(pyrimidin-4-yl)benzenesulfonamide] | 41.1 | 8.65
CN(CC(O)C(F)F)[C@H]1CCCC[C@@H]1Nc1cc(F)c(S(=O)(=O)Nc2nccs2)cc1Cl (single isomer, unassigned) [Example 127] | 61.5 | 6.58
CN1CCC[C@@H]1C(=O)N(C)[C@H]1CCCC[C@@H]1Nc1cc(F)c(S(=O)(=O)Nc2nccs2)cc1Cl [Example 204, (R)—N-((1S,2S)-2-((2-Chloro-5-fluoro-4-(N-(thiazol-2-yl)sulfamoyl)phenyl)amino)cyclohexyl)-N,1-dimethylpyrrolidine-2-carboxamide] | 308 | 20.5
CN(C)[C@@H]1CC(F)(F)CC[C@H]1Nc1cc(F)c(S(=O)(=O)Nc2nccs2)cc1Cl [Example 188, 5-chloro-4-(((1R,2R)-2-(dimethylamino)-4,4-difluorocyclohexyl)amino)-2-fluoro-N-(thiazol-2-yl)benzenesulfonamide formate] | 2000 | 684
CN(C)[C@H]1C[C@@H](c2ccccc2)CC[C@@H]1Nc1cc(F)c(S(=O)(=O)Nc2ccncn2)cc1Cl [Example 232, 5-chloro-4-(((1S,2S,4S)-2-(dimethyamino)-4-phenylcyclohexyl)amino)-2-fluoro-N-(pyrimidin-4-yl)benzenesulfonamide formate] | 47.8 | 10.5
O=S(=O)(Nc1nccs1)c1cc(Cl)c(N[C@H]2CCCC[C@@H]2N2CCC(O)CC2)cc1F [Example 131, 5-chloro-2-fluoro-4-(((1 S,2S)-2-(4-hydroxypiperidin-1-yl)cyclohexyl)amino)-N-(thiazol-2-yl)benzenesulfonamide] | 201 | 5.95
O=S(=O)(Nc1nccs1)c1cc(Cl)c(N[C@H]2CCCC[C@@H]2N2CCC[C@@](F)(CO)C2)cc1F [Example 213, 5-Chloro-2-fluoro-4-(((1S,2S)-2-((S)-3-fluoro-3-(hydroxymethyl)piperidin-1-yl)cyclohexyl)amino)-N-(thiazol-2-yl)benzenesulfonamide] | 218 | 13.9
CC(C)C(=O)N1CC(N(C)[C@H]2CCCC[C@@H]2Nc2cc(F)c(S(=O)(=O)Nc3nccs3)cc2Cl)C1 [Example 146, 5-Chloro-2-fluoro-4-(((1S,2S)-2-((1-isobutyrylazetidin-3-yl)(methyl)amino)cyclohexyl)amino)-N-(thiazol-2-yl)benzenesulfonamide] | 154 | 15.4
Cc1nc(NS(=O)(=O)c2cc(Cl)c(N[C@H]3CCCC[C@@H]3N(C)C)cc2F)sc1Cl [Example 172, 5-Chloro-N-(5-chloro-4-methylthiazol-2-yl)-4-(((1S,2S)-2-(dimethylamino)cyclohexyl)amino)-2-fluorobenzenesulfonamide] | 38.2 | 12.3
O=S(=O)(Nc1nccs1)c1cc(Cl)c(N[C@H]2CCCC[C@@H]2N2CCC[C@](F)(CO)C2)cc1F [Example 212, 5-Chloro-2-fluoro-4-(((1S,2S)-2-((R)-3-fluoro-3-(hydroxymethyl)piperidin-1-yl)cyclohexyl)amino)-N-(thiazol-2-yl)benzenesulfonamide] | 110 | 6.59
CN(C)[C@H]1C[C@H](c2cccc(C(F)(F)F)c2)CC[C@@H]1Nc1cc(F)c(S(=O)(=O)Nc2nccs2)cc1Cl [Example 137, 5-chloro-4-(((1S,2S,4R)-2-(dimethylamino)-4-(3-(trifluoromethyl)phenyl)cyclohexyl)amino)-2-fluoro-N-(thiazol-2-yl)benzenesulfonamide] | 3.57 | 1.24
CN1CC[C@@H]1C(=O)N(C)[C@H]1CCCC[C@@H]1Nc1cc(F)c(S(=O)(=O)Nc2nccs2)cc1Cl [Example 205, (R)—N-((1S,2S)-2-((2-Chloro-5-fluoro-4-(N-(thiazol-2-yl)sulfamoyl)phenyl)amino)cyclohexyl)-N,1-dimethylazetidine-2-carboxamide] | 556 | 32.7
CN(C1CCC1)[C@H]1C[C@@H](C(F)(F)F)CC[C@@H]1Nc1cc(F)c(S(=O)(=O)Nc2ccncn2)cc1Cl [Example 180, 5-chloro-4-(((1S,2S,4S)-2-(cyclobutyl(methyl)amino)-4-(trifluoromethyl)cyclohexyl)amino)-2-fluoro-N-(pyrimidin-4-yl)benzenesulfonamide] | 666 | 49.5
CN(C)[C@H]1C[C@@H]2[C@H](C[C@@H]1Nc1cc(F)c(S(=O)(=O)Nc3nccs3)cc1Cl)C2(Cl)Cl [Example 194, 5-Chloro-4-(((1S,3S,4S,6R)-7,7-dichloro-4-(dimethylamino)bicyclo[4.1.0]heptan-3-yl)amino)-2-fluoro-N-(thiazol-2-yl)benzenesulfonamide formate] | 2000 | 400
CN1CC(N(CC(F)(F)F)[C@H]2CCCC[C@@H]2Nc2cc(F)c(S(=O)(=O)Nc3nccs3)cc2Cl)C1 [Example 190, 5-Chloro-2-fluoro-4-(((1S,2S)-2-((1-methylazetidin-3-yl)(2,2,2-trifluoroethyl)amino)cyclohexyl)amino)-N-(thiazol-2-yl)benzenesulfonamide] | 478 | 41.5
CN(C[C@@H](O)C1CC1)[C@H]1CCCC[C@@H]1Nc1cc(F)c(S(=O)(=O)Nc2nccs2)cc1Cl [Example 139, 5-Chloro-4-(((1S,2S)-2-(((S)-2-cyclopropyl-2-hydroxyethyl)(methyl)amino)cyclohexyl)amino)-2-fluoro-N-(thiazol-2-yl)benzenesulfonamide] | 291 | 45.6
CN(C)[C@@H]1CCCCC[C@H]1Nc1cc(F)c(S(=O)(=O)Nc2nccs2)cc1Cl [Example 145, 5-chloro-4-(((1R,2R)-2-(dimethylamino)cycloheptyl)amino)-2-fluoro-N-(thiazol-2-yl)benzenesulfonamide formate] | 2000 | 395
5-chloro-4-(((1S,2S,4S)-4-(3,5-dichlorophenyl)-2-(dimethylamino)cyclohexyl)amino)-2-fluoro-N-(pyrimidin-4-yl)benzenesulfonamide formate [Example 239] | 2.93 | 1.5
COc1cc(S(=O)(=O)Nc2ccncn2)c(F)cc1N[C@H]1CC[C@H](c2cccc(C(F)(F)F)c2)C[C@@H]1N(C)C [Example 241, 4-(((1S,2S,4S)-2-(Dimethylamino)-4-(3-(trifluoromethyl)phenyl)cyclohexyl)amino)-2-fluoro-5-methoxy-N-(pyrimidin-4-yl)benzenesulfonamide formate] | 3.73 | 1.48
O=S(=O)(Nc1ccncn1)c1cc(Cl)c(N[C@@H]2CCCC[C@H]2N2CC3C(C2)C3(F)F)cc1F (stereo partly drawn) [Example 182, 5-chloro-4-(((1R,2R)-2-(6,6-difluoro-3-azabicyclo[3.1.0]hexan-3-yl)cyclohexyl)amino)-2-fluoro-N-(pyrimidin-4-yl)benzenesulfonamide] | 2000 | 1520
CN1CC[C@H](C(=O)N(C)[C@H]2CCCC[C@@H]2Nc2cc(F)c(S(=O)(=O)Nc3nccs3)cc2Cl)C1 [Example 199, (S)—N-((1S,2S)-2-((2-chloro-5-fluoro-4-(N-(thiazol-2-yl)sufamoyl)phenyl)amino)cyclohexyl)-N,1-dimethylpyrrolidine-3-carboxamide] | 131 | 18.7
CN(C)[C@H]1C[C@@H](c2cccc(C(F)(F)F)c2)CC[C@@H]1Nc1cc(F)c(S(=O)(=O)Nc2ccncn2)cc1F [Example 220, 4-(((1S,2S,4S)-2-(Dimethylamino)-4-(3-(trifluoromethyl)phenyl)cyclohexyl)amino)-2,5-difluoro-N-(pyrimidin-4-yl)benzenesulfonamide] |  | 0.418
